Experimental data: patent publication US10555959B2, “Glycolipids as treatment for disease” (La Jolla Pharmaceutical Company, priority 2009, dated 2020)

Columns and labels:
mouse cortical cells = experiment: Protection of cortical cells from apoptosis (hydrogen peroxide, MTT assay); type: cell-based; settings: approx. 0.1 μM; 50 μM hydrogen peroxide; cell death by MTT assay
Experimental: To induce apoptosis, mouse cortical cells were cultured and treated with 50 μM hydrogen peroxide for three hours prior to being treated with the ganglioside analogue.
The cells were also treated with the hydrogen peroxide during treatment with the ganglioside analogue and post-treatment for 48 h. Cell death was assayed using the MTT assay.

[1] = test system: C57B1/6 mice treated with MPTP; experiment: Animal model of Parkinson's and atypical Parkinson's disease (MPTP); type: in vivo, mouse; settings: daily administration for three weeks
Experimental: C57B1/6 mice 7-8 weeks of age can be treated with MPTP (b.i.d., 20 mg/kg, s.c.). The mice also receive a daily administration of saline, compound of formula (1), (2), (3), (4), (5), (6), (7), (8), (9) or (10) (1, 10 and 30 mg/kg, o.s.) or (0.3. to 3 mg/kg, i.p. or s.c.) for three weeks starting 24 h after the last MPTP injection. The brains are removed and analyzed for striatum and substantia nigra pars compacta dopamine levels. The midbrain is fixed for TH immunohistochemistry and dopamine neuron cell counts.

melanoma = settings: cited from earlier work
human adippose tissue = settings: human adipose tissue, in vitro; cited from earlier work
KATP channels = settings: in vitro; by activation of the KATP channels; ceramide fatty acid of C16:0; cited from earlier work
SUR-1−/− Mice = settings: cited from earlier work

Substance: Gal3GalNAc4(Neu5Ac3)Gal4GlcCer [GM1]
- protection of the cells from apoptosis (mouse cortical cells): approximately 20%
- striatal dopamine levels [1]: increase striatal dopamine levels to approximately the same extent

Substance: Neu5Ac3Gal3GalNAc4(Neu5Ac8Neu5Ac3)Gal4GlcCer [GT1b]
- growth of melanoma (melanoma): suppress

Substance: sulfatide
- expression of adiponectin (human adippose tissue): increased
- levels of IL-6 (human adippose tissue): decreasing
- levels of IL-8 (human adippose tissue): decreasing
- levels of TNF-alpha (human adippose tissue): decreasing
- glucose stimulation of insulin secretion (KATP channels): inhibited

Substance: Neu5Ac8Neu5Ac3Gal3GalNAc4(Neu5Ac8Neu5c3)Gal4GlcCer [GQ1b]
- growth of melanoma (melanoma): suppress

Substance: Exendin-(9-39)
- fasting blood glucose levels (SUR-1−/− Mice): Significantly Raises

Substance: Gal3GalNAc4(Neu5Ac8Neu5Ac3)Gal4GlcCer [GD1b]
- growth of melanoma (melanoma): suppress
